Measurements as given in patent US20090054403A1, “Treatment of Post-Traumatic Stress Disorder” (priority 2007, published 2009).
Entries after “also recorded” stand apart in the source; their conditions may differ.

What was measured:
pre-pulse inhibition = experiment: Pre-pulse inhibition of acoustic startle on day ten of chronic dosing
Method: (§1) The effects of chronic dosing of nepicastat were examined. Between three and thirteen days prior to the first dosing day the rats were placed inside the startle apparatus and after a five minute acclimation period they were presented with a 118 dB noise burst on average once a minute (a variable inter-trial interval ranging between 30 and 90 seconds will be used) for 20 minutes. The startle responses were measured and a mean for the last twenty startle response was calculated for each rat.
(§2) Acoustic startle reactivity (a series of muscle contractions elicited by an intense burst of noise with a rapid onset), and pre-pulse inhibition (sensorimotor gating measured by analyzing any decrease in startle reactivity which occurs when a startling stimulus is immediately preceded by a non startling stimulus) were both measured in eight SR-Lab (San Diego Instruments, San Diego, Calif.) test stations. The rats were placed individually in a Plexiglas cylinder (10 cm diameter) which was housed in a ventilated sound-attenuating enclosure. Acoustic noise bursts (a broad band noise with a rise time and fall time of 1 msec) were presented via a speaker mounted 30 cm above the animal. Also, these speakers produced a 68 dB level of background noise throughout all test sessions. […] A decibel meter was used to calibrate the speakers in each of the eight test station to ±1% of the mean. Additionally, a SR-Lab calibrating instrument was used to calibrate each of the eight startle detection apparatuses to ±2% of the mean. Startle reactivity and pre-pulse inhibition tests were run concurrently immediately alter the motor activity test (about 4 hours and 40 minutes after the morning daily injection of nepicastat, and SKF-102698, and 10 minutes after a supplemental administration of clonidine and d-amphetamine on dosing day ten).

plasma renin activity = experiment: Plasma renin activity after 5 days oral dosing; assay type: in vivo, SHR; settings: 30 and 100 mg/kg/d p.o. for 5 days
plasma NE, DA and EPI = experiment: Plasma catecholamines in beagle dogs, 2 mg/kg b.i.d. for 14.5 days; assay type: in vivo
Method: A separate study was conducted in dogs to determine the effects of chronic administration of 2a on the plasma DA/NE ratio. Animals were randomized to receive, orally, either placebo (empty capsule) or 2a (2 mg/kg, b.i.d) for 14.5 days. Daily blood samples were drawn, 6 h after the first dose, for the measurement of plasma concentrations of DA and NE. The samples were collected in tubes containing heparin and glutathione, centrifuged at […] and stored at −70° C. until analysis.
Male Beagle dogs (Marshall farms, North Rose, N.Y.) weighing between 9-16 kg were used in the study. The animals were allowed water ad libitum and given food once daily at ˜10.00 AM. Animals were randomly assigned to one of the following treatment groups (n=8/group): placebo (empty capsule), or nepicastat at 2 mg/kg b.i.d (4 mg/kg/day). Each animal received 2 doses daily, morning and afternoon (8-10 hours apart). Daily blood samples (10 ml) were drawn 6 h after the AM dose for measurement of plasma levels of nepicastat and catecholamines. The blood was collected in tubes containing heparin and glutathione and centrifuged at −4° C. within 1 h of collection. The plasma was separated and divided into two samples, one for the measurement of plasma catecholamines and the other for analysis of nepicastat.
Plasma NE, DA and EPI were anaylysed by HPLC using electrochemical detection. Plasma concentration of nepicastat was determined by HPLC using electrochemical detection.
The BQL (below quantitation limit) in the DA concentration of dog 1 at day 10 was set to 0; ln (0) was set to missing. The analysis was performed using a mixed model (using PROC MIXED) with the day and treatment categorical variables being fixed and the dog within treatment being a random factor. For the fixed effects, the interaction between the day and the treatment was included, since the difference between the drug and placebo groups varies from day to day. Contrasts were calculated using the CONTRAST statement, which correctly takes into account the error terms for each particular contrast. In particular, the contrasts comparing the […] uses the dog mean square for its error term, while the comparisons used to establish steady state are all within dog comparisons, and require the error mean square.
The time period of steady state was calculated using the Helmert transformation (cf. SAS PROC GLM manual). These transformations compare each treatment mean with the average of the treatment means of the time points following. The steady state period is defined to start at the first time point following the maximum time at which the Helmert contrast is statistically significant. However, since this method can fail to detect a smoothly changing process, as appears might be the case here, the slope of the analyte concentration during the steady state period also was calculated. The slope during the steady state period was calculated for each dog individually, yielding one slope per animal. Univariate statistics on the slopes were then calculated, with Normal theory confidence intervals built on the mean slope, and the hypothesis of slope equalling zero was tested, and its Normal theory p-value was calculated. This slope analysis was used as the basis for determining whether the steady state period was a period of changing concentration.

[1] = system: cardiovascular parameters; experiment: Cardiovascular effects of acute intravenous dosing in normal anesthetized dogs; assay type: in vivo; settings: 1-10 mg/kg i.v., up to five hours
[2] = system: spontaneous motor activity; experiment: Spontaneous motor activity on day ten of chronic dosing
Method: as §1
The animals were tested in an enclosed room with a white noise generator running. Motor activity tests were conducted immediately after the body core temperature reading taken on dosing day ten (about 3 hours and 35 minutes after the morning daily dose of nepicastat, and SKF-102698, and 20 minutes prior to the daily administration of clonidine and d-amphetamine on dosing day ten). Motor activity tests were run for one hour. A diagnostic program was run on each of the motor activity chambers prior to each test session to assure that the photo beams and light sensors were operating properly. […] D-amphetamine was used as the positive control for this assay.
Each rats spontaneous locomotion was obtained by calculating the total number of photobeams that the subject broke during the testing session.
Spontaneous motor activity was measured for each animal every 15 min for 1 hour. Each time block (every 15 min) was analyzed separately. Kruskal-Wallis test (nonparametric technique) was performed to test for the difference between treatment groups. If the overall significant difference […], Bonferroni's adjustment for multiple comparisons is then made.

[3] = system: acoustic startle reactivity; experiment: Acoustic startle reactivity on day ten of chronic dosing; settings: day ten of b.i.d. oral dosing
Method: as §1, §2

SMILES: Cl.NCc1c[nH]c(=S)n1[C@H]1CCc2c(F)cc(F)cc2C1 [nepicastat, (S)-5-Aminomethyl-1-(5,7-difluoro-1,2,3,4-tetrahydronaphth-2-yl)-2,3-dihydro-2-thioxo-1H-imidazole hydrochloride]
- percent prepulse inhibition vs vehicle (pre-pulse inhibition; rat, in vivo, po): None of the nepicastat dose groups were significantly different
- plasma renin activity (plasma renin activity): did not alter plasma renin activity
- day of peak decrease in plasma EPI (plasma NE, DA and EPI; 2 mg/kg b.i.d.): 8 days
- day of peak decrease in plasma NE (plasma NE, DA and EPI; 2 mg/kg b.i.d.): 6 days
- day of peak increase in plasma DA (plasma NE, DA and EPI; 2 mg/kg b.i.d.): 7 days
- day of peak increase in plasma DA/NE ratio (plasma NE, DA and EPI; 2 mg/kg b.i.d.): 6 days
- decrease in plasma EPI vs placebo (plasma NE, DA and EPI; 2 mg/kg b.i.d.): 1.91 fold
- decrease in plasma NE vs placebo (plasma NE, DA and EPI; 2 mg/kg b.i.d.): 2.1 fold
- increase in plasma DA vs placebo (plasma NE, DA and EPI; 2 mg/kg b.i.d.): 7.5 fold
- increase in plasma DA/NE ratio vs placebo (plasma NE, DA and EPI; 2 mg/kg b.i.d.): 13.6 fold
- time to steady-state of effect on plasma DA (plasma NE, DA and EPI; 2 mg/kg b.i.d.): ~8 days post-dose
- time to steady-state of effect on plasma EPI (plasma NE, DA and EPI; 2 mg/kg b.i.d.): ~6 days post-dose
- time to steady-state of effect on plasma NE (plasma NE, DA and EPI; 2 mg/kg b.i.d.): approximately 4 days post-dose
- peak reduction in plasma concentration of noradrenaline (plasma NE, DA and EPI; 2 mg/kg b.i.d. po, day-6 of dosing): 52%
- peak increase in plasma concentration of dopamine (plasma NE, DA and EPI; 2 mg/kg b.i.d. po, day-7 of dosing): 646%
- time to peak effect on plasma DA/NE ratio (plasma NE, DA and EPI; 2 mg/kg b.i.d., 14.5 day treatment): 6 to 7 days
- cardiovascular effects [1]: no cardiovascular effects
- spontaneous motor (locomotor) activity vs vehicle ([2]; rat, in vivo, po): no overall significant treatment effect

SMILES: Fc1cc(F)cc(Cn2cc[nH]c2=S)c1 [SKF 102698, reference compound]
- percent prepulse inhibition vs vehicle (pre-pulse inhibition; day ten of b.i.d. oral dosing): marginally higher percent prepulse inhibition; also recorded: Neither d-amphetamine nor SKF 102698 was significantly different
- spontaneous motor (locomotor) activity vs vehicle ([2]; day ten of b.i.d. oral dosing, 1 hour): significantly lower locomotor activity than its vehicle control at the first 45 minutes
- spontaneous motor (locomotor) activity vs vehicle ([2]; day ten of b.i.d. oral dosing, 1 hour, listed as SKF102698): significantly reduced
- acoustic startle reactivity vs vehicle [3]: significantly lower startle response compared to cyclodextrin
- acoustic startle reactivity vs vehicle ([3]; listed as SKF102698): significantly reduced
